PMC6010102, “N-thioalkylcarbazoles derivatives as new anti-proliferative agents: synthesis, characterisation and molecular mechanism evaluation” (Journal of Enzyme Inhibition and Medicinal Chemistry, 2018)

Key:
[1] = tested on: MCF-7 human breast cancer cells; assay: MTT cell viability, MCF-7; assay type: cell-based; conditions: MCF7, 72 h exposure, mean ± SD, read-out: Antiproliferative activity IC50, MCF-7
Excerpt: (§1) The six cell lines used in this work were purchased from American Type Culture Collection (ATCC, Manassas, VA). MCF-7 human breast cancer cells, oestrogen receptor (ER) positives, were maintained in Dulbecco’s Modified Eagle’s Medium/Nutrient Mixture F-12 Ham (DMEM/F12), supplemented with 5% foetal bovine serum (FBS) and 100 U/ml penicillin/streptomycin, as previously described. MDA-MB-231, human breast cancer cells, oestrogen receptor (ER) negative, were maintained in Dulbecco’s Modified Eagle’s Medium/Nutrient Mixture F-12 Ham (DMEM/F12), supplemented with 5% Newborn Calf Serum (NCS) and 100 U/ml penicillin/streptomycin. HeLa human epithelial cervix carcinoma cells, oestrogen receptor (ER) negative, and ISHIKAWA human endometrial adenocarcinoma cell, oestrogen receptor positive, were maintained in minimum essential medium (MEM), supplemented with 10% FBS, 100 U/ml penicillin/streptomycin and 1% non-essential amino acid. 3T3-L1 cells line of murine fibroblasts of embryonic type, were maintained in DMEM, supplemented with 10% NCS and 100 U/ml penicillin/streptomycin. MCF-10A human mammary epithelial cells were cultured in DMEM/F12 medium, supplemented with 5% horse serum (HS) (Eurobio, Les Ullis, Cedex, France), 100 U/ml penicillin/streptomycin, […] hydrocortisone, 20 ng/ml hEGF (human epidermal growth factor), 10 μg/ml insulin and […] cholera enterotoxin (Sigma-Aldrich, Milano, Italy). Cells were maintained at 37 °C in a humidified atmosphere of 95% air and 5% CO2 and periodically screened for contamination.
(§2) MDA-MB-231, MCF-7, HeLa and ISHIKAWA cells were grown in complete medium and, before being treated, they were serum deprived for 24 h, to allow cell cycle synchronisation. Then cells were grown in phenol red-free medium supplemented with 1% DCC (destran-coated charcoal treated) FBS, then treated with increasing concentrations (0.1, 1, 10, 20, 40, 100 µM) of each compound for 72 h. Compounds were dissolved in dimethylsulphoxide (DMSO) (Sigma, St. Louis, MO) and diluted in each cell medium. Untreated cells, used as a control, were added with DMSO alone (final concentration 0.1%). Cell viability was assessed using the 3-[4,5-dimethylthiazol-2-yl]-2,5-diphenyltetrazolium bromide reagent (MTT), according to the protocol from manufacturer (Sigma-Aldrich, Milan, Italy), as previously described[37] ^, [38]. For each sample, the mean absorbance, measured at 570 nm, was expressed as a percentage of the control and plotted versus drug concentration to determine for each cell line the IC50 values (namely, drugs concentrations able to reduce cell viability of 50% with respect to the control), using GraphPad Prism 5 Software (GraphPad Inc., San Diego, CA)[39]. Each experiment was carried out in quadruplicate. Standard deviations (SD) were shown.

[2] = tested on: MDA-MB-231 human breast cancer cells; assay: MTT cell viability, MDA-MB-231; assay type: cell-based; conditions: 72 h exposure, mean ± SD, read-out: Antiproliferative activity IC50, MDA-MB-231
Excerpt: as §1, §2

[3] = tested on: ISHIKAWA human endometrial adenocarcinoma cells; assay: MTT cell viability, ISHIKAWA; assay type: cell-based; conditions: 72 h exposure, mean ± SD, read-out: Antiproliferative activity IC50, ISHIKAWA
Excerpt: as §1, §2

[4] = tested on: HeLa human epithelial cervix carcinoma cells; assay: MTT cell viability, HeLa; assay type: cell-based; conditions: 72 h exposure, mean ± SD, read-out: Antiproliferative activity IC50, HeLa
Excerpt: as §1, §2

[5] = tested on: MCF-10A human mammary epithelial cells; assay: MTT cell viability, MCF-10A; assay type: cell-based; conditions: non-tumoural cells, 72 h exposure, mean ± SD, read-out: Antiproliferative activity IC50, MCF-10a
Excerpt: as §1, §2

[6] = tested on: 3T3-L1 murine fibroblasts; assay: MTT cell viability, 3T3-L1; assay type: cell-based; conditions: Mus musculus, non-tumoural cells, 72 h exposure, mean ± SD, read-out: Antiproliferative activity IC50, 3T3-L1
Excerpt: as §1, §2

[7] = molecular target: hTopoII (Homo sapiens, UniProt P11388); assay: Human topoisomerase II decatenation assay; assay type: biochemical; conditions: 50 µM, reference molecule
Method: Human topoisomerase II decatenation assay: hTopoII decatenation assays were performed as reported in Iacopetta et al.[8].
Figure 2. hTopoII inhibition assay. kDNA was incubated with human Topoisomerase II in the absence (lane C, vehicle DMSO) or presence of compound 5c (lane 5c) or Ellipticine (lane E) at 10 and 50 µM, respectively. Lane K, kinetoplast DNA (kDNA).

Chain of hTopoII (P11388 whole entry): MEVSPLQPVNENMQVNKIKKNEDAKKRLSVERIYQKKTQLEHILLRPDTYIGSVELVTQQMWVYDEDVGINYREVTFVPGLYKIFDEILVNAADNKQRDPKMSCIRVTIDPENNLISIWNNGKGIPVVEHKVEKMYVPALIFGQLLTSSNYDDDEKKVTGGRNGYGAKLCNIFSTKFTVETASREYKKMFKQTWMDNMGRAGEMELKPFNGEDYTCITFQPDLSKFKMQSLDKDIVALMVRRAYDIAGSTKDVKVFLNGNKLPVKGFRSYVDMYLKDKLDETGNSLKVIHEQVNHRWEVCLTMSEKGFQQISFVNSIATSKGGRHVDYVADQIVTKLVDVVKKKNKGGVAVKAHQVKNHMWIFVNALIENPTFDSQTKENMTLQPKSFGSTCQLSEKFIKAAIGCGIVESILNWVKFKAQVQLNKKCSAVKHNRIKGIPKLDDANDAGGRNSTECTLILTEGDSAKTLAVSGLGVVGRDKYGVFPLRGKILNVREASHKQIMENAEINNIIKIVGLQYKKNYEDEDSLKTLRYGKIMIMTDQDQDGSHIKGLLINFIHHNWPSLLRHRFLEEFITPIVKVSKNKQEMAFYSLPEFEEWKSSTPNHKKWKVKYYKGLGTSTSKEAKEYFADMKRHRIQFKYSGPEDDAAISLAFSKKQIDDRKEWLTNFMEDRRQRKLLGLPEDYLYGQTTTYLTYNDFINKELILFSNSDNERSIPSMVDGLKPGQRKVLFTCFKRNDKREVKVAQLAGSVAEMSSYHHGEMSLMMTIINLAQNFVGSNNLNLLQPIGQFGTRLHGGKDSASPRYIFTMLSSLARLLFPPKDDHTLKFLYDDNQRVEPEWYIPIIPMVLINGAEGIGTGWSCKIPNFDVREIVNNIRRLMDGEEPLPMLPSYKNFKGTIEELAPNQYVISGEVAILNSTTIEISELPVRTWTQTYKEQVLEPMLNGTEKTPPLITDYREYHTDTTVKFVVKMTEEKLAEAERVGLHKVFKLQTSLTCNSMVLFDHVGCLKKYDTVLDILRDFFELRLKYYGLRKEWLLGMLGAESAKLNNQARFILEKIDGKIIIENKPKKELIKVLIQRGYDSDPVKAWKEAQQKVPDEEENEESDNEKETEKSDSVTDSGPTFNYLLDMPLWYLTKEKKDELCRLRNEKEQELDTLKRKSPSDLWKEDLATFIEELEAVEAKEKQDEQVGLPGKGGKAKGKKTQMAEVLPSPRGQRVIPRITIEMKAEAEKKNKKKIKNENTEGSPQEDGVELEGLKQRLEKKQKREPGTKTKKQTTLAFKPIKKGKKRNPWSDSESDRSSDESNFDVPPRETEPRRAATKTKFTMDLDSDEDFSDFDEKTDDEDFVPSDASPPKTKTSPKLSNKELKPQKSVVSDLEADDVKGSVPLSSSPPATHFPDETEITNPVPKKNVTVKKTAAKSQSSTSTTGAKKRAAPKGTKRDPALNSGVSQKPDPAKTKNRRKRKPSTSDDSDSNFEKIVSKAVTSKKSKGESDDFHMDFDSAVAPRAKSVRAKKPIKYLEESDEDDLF

IC50 [1] | IC50 [2] | IC50 [3] | IC50 [4] | SMILES | IC50 [5] | IC50 [6] | hTopoII inhibition (kDNA decatenation) [7]
> 100 µM | > 100 µM | > 100 µM | > 100 µM | SCCCCCCCCn1c2ccccc2c2ccccc21 [6a, 8-(9H-Carbazol-9-yl)octane-1-thiol] | > 100 µM | > 100 µM | 
> 100 µM | > 100 µM | > 100 µM | > 100 µM | Cc1ccc2c(c1)c1c(C)ccc(C)c1n2CCCCCCCCS [6b, 8-(1,4,6-Trimethyl-9H-carbazol-9-yl)-octane-1-thiol] | > 100 µM | > 100 µM | 
> 100 µM | > 100 µM | > 100 µM | > 100 µM | Cc1ccc(C)c2c1c1cc(Br)ccc1n2CCCCCCCCS [6c, 8-(6-Bromo-1,4-dimethyl-9H-carbazol-9-yl)-octane-1-thiol] | > 100 µM | > 100 µM | 
> 100 µM | > 100 µM | > 100 µM | > 100 µM | SCCCCCCCCCn1c2ccccc2c2ccccc21 [7a, 9-(9H-Carbazol-9-yl)nonane-1-thiol] | > 100 µM | > 100 µM | 
> 100 µM | > 100 µM | > 100 µM | > 100 µM | Cc1ccc2c(c1)c1c(C)ccc(C)c1n2CCCCCCCCCS [7b, 9-(1,4,6-Trimethyl-9H-carbazol-9-yl)-nonane-1-thiol] | > 100 µM | > 100 µM | 
> 100 µM | > 100 µM | > 100 µM | > 100 µM | Cc1ccc(C)c2c1c1cc(Br)ccc1n2CCCCCCCCCS [7c, 9-(6-Bromo-1,4-dimethyl-9H-carbazol-9-yl)-nonane-1-thiol] | > 100 µM | > 100 µM | 

More lines, now with the values behind:

SMILES | IC50 [1] | IC50 [2] | IC50 [3] | IC50 [4] | IC50 [5] | IC50 [6] | hTopoII inhibition (kDNA decatenation) [7]
SCCCCCCCn1c2ccccc2c2ccccc21 [5a, 7-(9H-Carbazol-9-yl)heptane-1-thiol] | 50.4 ± 0.96 µM | 39.9 ± 0.52 µM | 19.2 ± 1.13 µM | 12.8 ± 0.62 µM | > 100 µM | > 100 µM | 
Cc1ccc2c(c1)c1c(C)ccc(C)c1n2CCCCCCCS [5b, 7-(1,4,6-Trimethyl-9H-carbazol-9-yl)-heptane-1-thiol] | > 100 µM | > 100 µM | > 100 µM | > 100 µM | > 100 µM | > 100 µM | 
Cc1c2ccncc2c(C)c2c1[nH]c1ccccc12 [Ellipticine, reference compound] | 1.25 ± 0.3 µM | 1.85 ± 0.15 µM | 1.7 ± 0.8 µM | 1.05 ± 0.5 µM | 1.2 ± 0.2 µM | 0.98 ± 0.7 µM | complete inhibition
